Reference: ChEMBL document CHEMBL5352400, “Design, synthesis and biological evaluation of novel coumarin derivatives as multifunctional ligands for the treatment of Alzheimer's disease” (Eur J Med Chem, 2022)
pIC50: −log10 of the molar value.

What was measured:
Acetylcholinesterase = Acetylcholinesterase (Electrophorus electricus, UniProt O42275); experiment: Inhibition of electric eel AChE using acetylthiocholine iodine as substrate preincubated for 20 mins followed by substrate addition and measured after 20 mins by DTNB reagent based Ellman's method
Sequence of Acetylcholinesterase (O42275 whole entry): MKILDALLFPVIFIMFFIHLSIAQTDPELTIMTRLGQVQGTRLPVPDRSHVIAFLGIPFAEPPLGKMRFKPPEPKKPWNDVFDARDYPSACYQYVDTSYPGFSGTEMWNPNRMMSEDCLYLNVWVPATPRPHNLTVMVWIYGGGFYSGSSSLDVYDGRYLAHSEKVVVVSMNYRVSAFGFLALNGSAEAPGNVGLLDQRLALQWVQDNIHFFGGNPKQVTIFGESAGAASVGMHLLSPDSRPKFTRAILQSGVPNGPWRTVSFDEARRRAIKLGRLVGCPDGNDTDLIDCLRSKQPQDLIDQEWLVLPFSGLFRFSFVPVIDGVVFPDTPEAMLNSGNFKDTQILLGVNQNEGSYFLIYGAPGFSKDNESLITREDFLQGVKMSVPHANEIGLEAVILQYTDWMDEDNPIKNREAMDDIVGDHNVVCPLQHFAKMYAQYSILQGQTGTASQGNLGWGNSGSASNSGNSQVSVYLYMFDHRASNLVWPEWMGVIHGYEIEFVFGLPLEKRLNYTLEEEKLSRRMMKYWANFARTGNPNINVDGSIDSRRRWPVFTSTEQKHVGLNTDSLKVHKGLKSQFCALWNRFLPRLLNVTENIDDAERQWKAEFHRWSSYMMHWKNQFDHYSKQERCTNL

Cholinesterase = Cholinesterase (Equus caballus, UniProt P81908); experiment: Inhibition of equine serum BuChE using butylthiocholine iodine as substrate preincubated for 20 mins followed by substrate addition and measured after 20 mins by DTNB reagent based Ellman's method
Sequence of Cholinesterase (P81908 whole entry): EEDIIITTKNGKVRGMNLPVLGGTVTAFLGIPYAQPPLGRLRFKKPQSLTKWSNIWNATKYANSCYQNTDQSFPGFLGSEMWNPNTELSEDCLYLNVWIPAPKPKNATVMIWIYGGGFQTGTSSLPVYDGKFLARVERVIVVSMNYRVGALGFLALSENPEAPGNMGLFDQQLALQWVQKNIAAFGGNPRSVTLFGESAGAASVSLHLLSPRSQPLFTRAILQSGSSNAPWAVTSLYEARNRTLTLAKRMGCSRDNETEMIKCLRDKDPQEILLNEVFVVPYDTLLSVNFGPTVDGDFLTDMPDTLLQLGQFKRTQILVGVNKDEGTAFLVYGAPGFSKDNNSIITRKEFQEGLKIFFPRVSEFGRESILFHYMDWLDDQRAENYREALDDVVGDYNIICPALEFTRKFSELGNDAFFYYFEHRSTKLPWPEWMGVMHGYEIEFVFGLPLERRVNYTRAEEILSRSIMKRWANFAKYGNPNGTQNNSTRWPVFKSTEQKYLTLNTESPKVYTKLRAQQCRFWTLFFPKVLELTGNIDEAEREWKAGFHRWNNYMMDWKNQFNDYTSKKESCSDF

[1] = Selectivity index, ratio of IC50 for inhibition of equine serum BuChE to IC50 for inhibition of electric eel AChE
[2] = Cytotoxicity in human HepG2 cells assessed as reduction in cell viability incubated for 48 hrs by MTT assay; format: toxicity, cell-based
[3] = Cytotoxicity in human SH-SY5Y cells assessed as reduction in cell viability incubated for 48 hrs by MTT assay; format: toxicity, cell-based
Beta-secretase 1 [4] = target: T1, Beta-secretase 1 (Homo sapiens, UniProt P56817); experiment: Inhibition of recombinant human BACE1 using fluorogenic polypeptide Mca-SEVNLDAEFRK(Dpn)RRNH2 as substrate at 10 uM incubated for 60 mins by FRET assay relative to control
T1 sequence (P56817 whole entry): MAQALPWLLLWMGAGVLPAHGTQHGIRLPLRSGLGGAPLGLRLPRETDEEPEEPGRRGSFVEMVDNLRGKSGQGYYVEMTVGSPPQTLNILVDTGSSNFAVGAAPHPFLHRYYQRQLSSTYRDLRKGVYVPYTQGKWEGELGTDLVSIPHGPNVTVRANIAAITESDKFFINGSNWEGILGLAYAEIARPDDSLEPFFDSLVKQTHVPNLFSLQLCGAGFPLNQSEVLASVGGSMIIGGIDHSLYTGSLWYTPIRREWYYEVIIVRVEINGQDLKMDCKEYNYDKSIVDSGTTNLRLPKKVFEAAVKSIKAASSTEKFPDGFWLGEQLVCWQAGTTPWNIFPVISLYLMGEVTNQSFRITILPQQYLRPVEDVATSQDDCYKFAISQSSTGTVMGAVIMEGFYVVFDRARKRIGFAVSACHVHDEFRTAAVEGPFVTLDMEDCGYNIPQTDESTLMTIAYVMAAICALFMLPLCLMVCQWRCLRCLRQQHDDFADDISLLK

[5] = Effective permeability of the compound in PBS buffer at pH 7.4/EtOH buffer (7:3) incubated for 20 hrs by UV-plate spectroscopy based PAMPA-BBB assay
[6] = Cytotoxicity in human HL7702 cells assessed as reduction in cell viability incubated for 48 hrs by MTT assay; format: toxicity, cell-based; conditions: HL7702 (L02) cells
[7] = target: Glycogen synthase kinase-3 beta (Homo sapiens, UniProt P49841); experiment: Inhibition of GSK-3beta (unknown origin)
Sequence of Glycogen synthase kinase-3 beta (P49841 whole entry): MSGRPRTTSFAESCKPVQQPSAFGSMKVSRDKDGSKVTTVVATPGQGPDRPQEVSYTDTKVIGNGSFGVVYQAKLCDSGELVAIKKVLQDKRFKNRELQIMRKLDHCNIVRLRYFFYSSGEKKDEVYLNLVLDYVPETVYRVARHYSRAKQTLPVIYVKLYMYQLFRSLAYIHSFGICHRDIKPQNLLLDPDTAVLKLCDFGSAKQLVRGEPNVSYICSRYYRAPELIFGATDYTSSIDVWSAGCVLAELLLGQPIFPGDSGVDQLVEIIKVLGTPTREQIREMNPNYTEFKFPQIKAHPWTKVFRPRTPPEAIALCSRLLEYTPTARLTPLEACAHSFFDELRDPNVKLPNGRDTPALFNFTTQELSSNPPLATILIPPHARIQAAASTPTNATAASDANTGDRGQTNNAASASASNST

Beta-secretase 1 [8] = target: T1, Beta-secretase 1; experiment: Inhibition of BACE1 (unknown origin)
Beta-secretase 1 [9] = target: T1, Beta-secretase 1; experiment: Inhibition of recombinant human BACE1 using fluorogenic polypeptide Mca-SEVNLDAEFRK(Dpn)RRNH2 as substrate incubated for 60 mins by FRET assay

Compound | pIC50 (Acetylcholinesterase) | pIC50 (Cholinesterase) | Ratio IC50 [1] | IC50 at 48 h [2] [µM] | IC50 at 48 h [3] [µM] | inhibition (Beta-secretase 1 [4]) [%] | Papp at 20 h [5] [×10⁻⁶ cm/s] | IC50 at 48 h [6] [µM] | pIC50 [7] | pIC50 (Beta-secretase 1 [8]) | pIC50 (Beta-secretase 1 [9])
O=C(Nc1cc(-c2ccc3c(OCCCNC4CCN(Cc5ccccc5)CC4)cc(=O)oc3c2)ccn1)c1ccccc1 | 4.87 | < 4.30 | > 3.7 | 1.91 | 1.5 | – | – | – | – | – | –
O=c1cc(OCCCNC2CCN(Cc3ccccc3)CC2)c2ccc(-c3ccncc3)cc2o1 | 5.65 | < 4.30 | > 22.3 | 10.6 | 10.2 | – | – | – | – | – | –
O=c1cc(OCCCN2CCC(NCc3ccccc3)CC2)c2ccc(-c3ccc(F)nc3)cc2o1 | 5.45 | 4.35 | 12.5 | 8.49 | 12.2 | – | – | – | – | – | –
Cc1cccc(CNC2CCN(CCCOc3cc(=O)oc4cc(-c5cccnc5)ccc34)CC2)c1 | 4.78 | 4.73 | 1.12 | 13.1 | 12 | – | – | – | – | – | –
Cc1ccc(CNC2CCN(CCCOc3cc(=O)oc4cc(-c5cccnc5)ccc34)CC2)cc1 | 4.85 | 4.79 | 1.15 | 9.93 | 16.5 | 36.4 | – | – | – | – | –
O=c1cc(OCCCN2CCC(NCc3cccc(F)c3)CC2)c2ccc(-c3cccnc3)cc2o1 | 5.00 | 4.55 | 2.82 | 14.6 | 14.4 | 34 | – | – | – | – | –
O=C(Nc1cc(-c2ccc3c(OCCCNC4CCN(Cc5ccccc5)CC4)cc(=O)oc3c2)ccn1)C1CC1 | 5.17 | < 4.30 | > 7.41 | 3.65 | 3.41 | 30.9 | – | – | – | – | –
O=c1cc(OCCCN2CCC(NCc3ccc(F)cc3)CC2)c2ccc(-c3cccnc3)cc2o1 | 4.59 | < 4.30 | > 1.93 | > 20 | 10.9 | 22.1 | – | – | – | – | –
O=c1cc(OCCCNC2CCN(Cc3ccccc3)CC2)c2ccc(-c3ccc(F)nc3)cc2o1 | 5.76 | < 4.30 | > 29 | 3.93 | 5.75 | – | – | – | – | – | –
N#Cc1cccc(CNC2CCN(CCCOc3cc(=O)oc4cc(-c5cccnc5)ccc34)CC2)c1 | 5.14 | < 4.30 | > 6.87 | 3.26 | 12.4 | 89.5 | – | – | – | – | –
O=c1cc(OCCCN2CCC(CNCc3ccccc3F)CC2)c2ccc(-c3cccnc3)cc2o1 | 4.97 | 4.51 | 2.91 | 4.26 | 6.49 | 67.2 | – | – | – | – | –
COc1ccc(CNC2CCN(CCCOc3cc(=O)oc4cc(-c5cccnc5)ccc34)CC2)cc1 | 4.94 | 4.95 | 0.982 | 9.12 | 6.81 | 82 | – | – | – | – | –
O=c1cc(OCCCN2CCOCC2)c2ccc(-c3cccnc3)cc2o1 | 4.81 | < 4.30 | > 3.19 | > 20 | > 20 | – | – | – | – | – | –
CN(Cc1ccccc1)C1CCN(CCCOc2cc(=O)oc3cc(-c4ccc(F)nc4)ccc23)CC1 | 5.39 | < 4.30 | > 12.3 | 10.4 | 15.6 | 61.3 | – | – | – | – | –
O=c1cc(OCCCN2CCC(NCc3ccsc3)CC2)c2ccc(-c3cccnc3)cc2o1 | 5.48 | 5.00 | 3.03 | 14.1 | 14.2 | 64.7 | 15.4 | 36.2 | – | – | –
O=c1cc(OCCCNC2CCN(Cc3ccccc3)CC2)c2ccc(-c3ccc(F)cc3)cc2o1 | 4.46 | < 4.30 | > 1.46 | 9.14 | 6.69 | – | – | – | – | – | –
O=c1cc(OCCCNC2CCN(Cc3ccccc3)CC2)c2ccc(-c3ccnc(F)c3)cc2o1 | 5.67 | < 4.30 | > 23.4 | 5.95 | 5.56 | – | – | – | – | – | –
COc1cccc(CNC2CCN(CCCOc3cc(=O)oc4cc(-c5cccnc5)ccc34)CC2)c1 | 4.91 | 4.95 | > 4.03 | 11.4 | 19.3 | 48.8 | – | – | – | – | –
Nc1c2c(nc3ccccc13)CCCC2 [TACRINE] | – | – | – | – | – | – | 8.04 | – | – | – | –
C[C@@]1(c2cc(-c3cncnc3)c(F)cc2F)CCSC(N)=N1 | – | – | – | – | – | 80.3 | – | – | – | – | –
O=C(Nc1cc(-c2ccc3c(OCCCN4CCC(NCc5ccccc5)CC4)cc(=O)oc3c2)ccn1)C1CC1 | 5.01 | 4.54 | 2.99 | 3.34 | 1.87 | 34.7 | – | – | – | – | –
O=c1cc(OCCCN2CCC(NCc3cccc([N+](=O)[O-])c3)CC2)c2ccc(-c3cccnc3)cc2o1 | 4.44 | < 4.30 | > 1.37 | 9.29 | 8.37 | 46.1 | – | – | – | – | –
COc1cccc(/C=N/C2CCN(Cc3ccccc3)CC2)c1OC | – | – | – | – | – | – | – | – | < 4.82 | – | –
O=c1cc(OCCCN2CCC(NCc3ccccc3F)CC2)c2ccc(-c3cccnc3)cc2o1 | 4.94 | < 4.30 | > 4.31 | 15.1 | 19.1 | – | – | – | – | – | –
O=c1cc(OCCCN2CCC(NCc3ccccc3)CC2)c2ccc(Br)cc2o1 | 4.64 | 4.45 | 1.58 | 11.8 | > 20 | 72.8 | – | – | – | – | –
O=c1cc(OCCCN2CCC(NCc3ccccc3)CC2)c2ccc(-c3ccncc3)cc2o1 | 4.77 | < 4.30 | > 2.97 | 13.9 | 16.4 | 49.4 | – | – | – | – | –
CC(C)=CC(O)C/C(C)=C/COc1c2ccoc2cc2oc(=O)ccc12 (stereo not drawn) [NOTOPTEROL] | < 4.00 | < 4.00 | – | > 20 | > 20 | 10.2 | – | – | 6.00 | 4.58 | 4.58
O=c1cc(OCCCN2CCC(NCc3ccc(F)c(F)c3)CC2)c2ccc(-c3cccnc3)cc2o1 | 4.90 | 4.64 | 1.78 | 9.72 | 5.36 | 93.8 | 9.4 | 8.05 | – | – | 5.74
O=c1cc(OCCCN2CCC(NCc3ccccc3)CC2)c2ccc(-c3cccnc3)cc2o1 | 5.03 | 4.67 | 2.3 | > 20 | > 20 | 51.4 | – | – | – | – | –
CN(Cc1ccccc1)C1CCN(CCCOc2cc(=O)oc3cc(-c4ccc(F)cc4)ccc23)CC1 | 5.34 | < 4.30 | > 11 | 3.37 | 4.88 | 70.9 | – | – | – | – | –
